Consider one compound from paper PMC8887546, “Design and Synthesis of Brain Penetrant Glycopeptide Analogues of PACAP With Neuroprotective Potential for Traumatic Brain Injury and Parkinsonism” (Frontiers in drug discovery, 2022).

Each structure is given as a SMILES string.

Assay [1] has as its system Sprague Dawley rats, 6-OHDA lesion. Description: Amphetamine-induced rotations, moderate 6-OHDA hemi-parkinsonian rat model (study 2). The note with it: more severe (40%) lesion, three injections 15 mg/kg i.p., vs vehicle. It counts as in vivo. The protocol: Rats were treated with 2LS98Lac or saline (vehicle) as outlined in the Schemes in Figures 9A,B via intraperitoneal (i.p.) injection (15 mg/kg). All animals were made hemi-parkinsonian with unilateral, striatal 6-hydroxydopamine (Sigma Aldrich, St. Louis, MO) injections. After surgery, behavioral assessments were done at 2- and 4-weeks post-surgery. 24 h after the last test animals were either euthanized and whole brains were harvested for future biochemical analysis or perfused and brains collected for immunohistochemistry and stereological assessment of tyrosine hydroxylase-positive (TH+) cells remaining in the SNc. In study 1: n = 16 each group were included, and all underwent the behavioral analysis: n = 16, and for the stereology in the SNc, n = 8 each group was used. […]
In order to pharmacologically assess the degree of dopaminergic (DA) depletion in the lesioned side, animals were given amphetamine, an indirectly acting DA agonist and placed into a plexiglass cylinder (38 cm tall × 38 cm across) enclosed in an open field box ([Yue et al., 2011]). Dextro-amphetamine in sterile 0.9% saline (Sigma-Aldrich) was injected i.p. at 5 mg/kg, and rotations were recorded from above using Logitech HD web cameras connected to an Acer Aspire SWS-015 computer. An observer blinded to the groups counted rotations in both the ipsilateral and contralateral rotations for the entire 70 min period. […]

For assay [2] the test system is unchanged. Description: Striatal TH expression, semi-quantitative western analysis (study 2). Conditions: more severe (40%) lesion, vs vehicle. Format: in vivo, rat. How it is done: Rats were treated with 2LS98Lac or saline (vehicle) as outlined in the Schemes in Figures 9A,B via intraperitoneal (i.p.) injection (15 mg/kg). All animals were made hemi-parkinsonian with unilateral, striatal 6-hydroxydopamine (Sigma Aldrich, St. Louis, MO) injections. After surgery, behavioral assessments were done at 2- and 4-weeks post-surgery. 24 h after the last test animals were either euthanized and whole brains were harvested for future biochemical analysis or perfused and brains collected for immunohistochemistry and stereological assessment of tyrosine hydroxylase-positive (TH+) cells remaining in the SNc. In study 1: n = 16 each group were included, and all underwent the behavioral analysis: n = 16, and for the stereology in the SNc, n = 8 each group was used. In study 2: n = 23 each group were included. […] In the 2LS98Lac group, one video at 4 weeks was lost, reducing n = 22 in this specific analysis, and for the stereology, 2 brains were damaged during processing and could not be included in the stereology of the SNc, therefore […]. For biochemical subanalyses, n = 8 each group. For the microglial morphology subanalysis n = 7 each group.
FIGURE 9 | Evaluation of neuroprotection of the PACAP glycopeptide 2LS98Lac in rat Parkinson’s disease models. (A) Scheme for study 1, using a mild PD lesion. (B) Scheme for study 2, using a moderate PD lesion. […]

With `[2H]C([2H])([2H])C([2H])(C([2H])([2H])[2H])[C@]([2H])(NC(=O)[C@H](C)NC(=O)[C@H](C)NC(=O)[C@H](CC(C)C)NC(=O)[C@H](Cc1ccc(O)cc1)NC(=O)[C@H](CCCCN)NC(=O)[C@H](CCCCN)NC(=O)[C@@]([2H])(NC(=O)[C@H](C)NC(=O)[C@H](CC(C)C)NC(=O)[C@H](CCC(N)=O)NC(=O)[C@H](CCCCN)NC(=O)[C@H](CCCNC(=N)N)NC(=O)[C@H](Cc1ccc(O)cc1)NC(=O)[C@H](CCCNC(=N)N)NC(=O)[C@H](CO)NC(=O)[C@H](Cc1ccc(O)cc1)NC(=O)[C@H](CO)NC(=O)[C@H](CC(=O)O)NC(=O)[C@@H](NC(=O)[C@H](Cc1ccccc1)NC(=O)[C@@H](NC(=O)CNC(=O)[C@H](CC(=O)O)NC(=O)[C@H](CO)NC(=O)[C@@H](N)Cc1c[nH]cn1)[C@@H](C)CC)[C@@H](C)O)C([2H])(C([2H])([2H])[2H])C([2H])([2H])[2H])C(=O)N[C@@H](CC(C)C)C(=O)N[C@@H](CO[C@@H]1O[C@H](CO)[C@@H](O[C@@H]2O[C@H](CO)[C@H](O)[C@H](O)[C@H]2O)[C@H](O)[C@H]1O)C(N)=O` [Compound 2LS98Lac], in assay [1], the “Amphetamine-induced rotations at 2 weeks post-lesion” value is listed as “did not see a difference” and the “Amphetamine-induced rotations at 4 weeks post-lesion” value is “did not see a difference”. The “Striatal TH” value in assay [2] is “no significant difference”.
